Measurements taken from a melting point compilation (Tetko et al.; mined from patent text by program, amines drawn as free bases though some values may be those of a salt).

SMILES	melting point [°C]
COc1ccc2c(c1)C(C)CCC2=O (stereo not drawn)	57.5 to 58.5
CCCCNS(=O)(=O)NC(=O)OCc1ccc(OCCOC)cc1Oc1ncc(C(F)(F)F)cc1Cl	164 to 165
Nc1cc(-c2cc(Cl)cc(Cl)c2)cc2nc(-c3ccco3)nn12	257 to 260
Cc1ccc2cccc(OCc3c(Cl)ccc(N(C)C(=O)CNC(=O)C=Cc4ccc(C(=O)O)cc4)c3Cl)c2n1	238 to 241
COc1ccc(-c2cc(=O)n(CC=Cc3ccc(Cl)cc3)nc2-c2ccc(OC)c(F)c2)cc1F	72.5 to 74.9
CCn1nc(OCC(=O)C(C)(C)C)c(-c2ccc(F)cc2)c1-c1ccc(S(N)(=O)=O)cc1	196 to 198
N#Cc1nc2cc(O)ccc2s1	194
CCOc1c(C)cc(P(c2cc(C)c(OCC)c(C)c2)c2cc(C)c(OCC)c(C)c2)cc1C	122
COc1ccc2c(c1)N(C1CN3CCC1CC3)c1ccccc1S2 (stereo not drawn)	158
O=C(CCl)N1CCC(c2noc3cc(F)ccc23)CC1	101 to 102
CCCCCCCCCCCc1cc2cc(C(=O)OCC)ccc2[nH]1	76 to 77
CSC(=CC(=O)c1ccccc1C)SC	96.2
CCOc1cc([N+](=O)[O-])c2c(c1)C1(C)CCN(C)C1N2C (stereo not drawn)	106 to 108
COCCOc1cc(OC)c2c(=O)[nH]c(-c3cc(C)nc(C)c3)nc2c1	229 to 230
CC(O)C#Cc1ncn2c1CN(C)C(=O)c1ccccc1-2 (stereo not drawn)	161 to 162
CCOC(=O)C(=O)Nc1ccc2nonc2c1NC(=O)C(=O)OCC	175
CC1(C(=O)NCc2cccs2)CCCCC1	72 to 73
CC1CCC2(C)C(=CCC3C4CCC(=O)C4(C)CCC32)C1 (stereo not drawn)	148 to 150
CNC(=O)c1cc2c(cn1)[nH]c1ccccc12	264 to 266
CCOC(=O)c1cnoc1-c1ccc(Cl)s1	74 to 75
COc1ccc(-c2csc3ccc([N+](=O)[O-])c(C(=O)N4CCOCC4)c23)cc1OC	144
C[C@]1(CN2CCN(C(=O)c3ccc(Cl)cc3)CC2)Cn2cc([N+](=O)[O-])nc2O1	173 to 174
O=c1c2cc(F)c(N3CCCC3)cc2n(-c2ccccc2F)c(=O)n1O	235 to 237
Cc1ccc(Sc2cncc3sc(C(N)=O)cc23)cc1C	192 to 194
CCCCCCOC1CC(C)(C)N(c2nc(Cl)nc(Cl)n2)C(C)(C)C1	49 to 51
COc1c(N2CCC(N)C(C)C2)c(F)cc2c(=O)c(C(=O)O)cn(C3CC3)c12 (stereo not drawn)	240 to 242
C=CCc1cc(C#CC2(O)CN3CCC2CC3)ccc1OCC(=O)OCC (stereo not drawn)	95.9
CC(C)(C)OC(=O)NC1CCCCCC=CC2CC2(C(=O)NS(=O)(=O)C2CC2)NC(=O)C2CC(OC(=O)c3ccc4c(c3)OCCO4)CN2C1=O (stereo not drawn)	199 to 201

SMILES	melting point [°C]
CCC(=O)Oc1ccc(N)cc1C(=O)O	213 to 220
Oc1cccc(-n2cnc3cc(C(F)(F)F)ccc32)c1	168 to 170
Cc1cc(C(C)(C)CCl)c(C)nn1	57 to 59
CS(=O)(=O)c1ccc(-c2sc(CC#N)nc2-c2ccc(F)cc2)cc1	151 to 152
CCc1cccc(CC(=O)O)c1OCCCc1cc(OC(C)C)nn1Cc1ccc(Cl)cc1Cl	98 to 99
COC(=O)c1cc2c(nc1C)C(CO)CCCC2 (stereo not drawn)	55 to 56
COc1ccc(Nc2nc(NCCNC(=O)OC(C)(C)C)nc(NC3CCCCCC3)n2)cc1Cl	94
COC(=O)C(C)(C)CC(=O)CCc1ccc(Cl)cc1	52 to 54
COC(=O)c1cc(CCN(C)CCCC(C#N)(c2ccc(OC)c(OC)c2)C(C)C)cc(C(=O)OC)c1 (stereo not drawn)	100 to 103
Nc1ccc(N2CCOCC2)c(C(F)(F)F)c1	149 to 151
CC(C)C1(C)N=C(c2nc3scc([N+](=O)[O-])c3cc2C(=O)O)NC1=O (stereo not drawn)	260
CCCCCCCCCCNC(=O)c1ccc(C(=O)NCCCCCCCCCC)c([N+](=O)[O-])c1	159 to 160
O=C1c2ccc(C(F)(F)F)cc2C(=O)N1c1ccc2ccc(Cl)nc2n1	265
OCC1OC(n2cnc3c(NN4CCOCC4)nc(Cl)nc32)C(O)C1O (stereo not drawn)	160 to 161
COC1CC(C(C)CCCC(C)C)C2(C)CCC3C(=C12)CCC1CC(O)CCC13C (stereo not drawn)	127 to 128
Cc1ccc(S(=O)(=O)Nc2cccc3cc(C(N)=O)[nH]c23)cc1	312 to 313
Cc1cc2c(cc1C)-n1ccc(=O)nc1CC(c1ccc(-n3c(C)nc4cnccc43)cc1)=N2	192 to 194
C=CCOc1ccccc1C(=O)Nc1c(CCC)nn(C)c1C(N)=O	132 to 134
Oc1nsc(OC2CCCCC2)n1	105
CCOC(=O)Nc1cc(OCC)cc2c1CC(C)O2 (stereo not drawn)	64
COCc1nc2nccnc2c(=O)[nH]1	187 to 189
CCCCNC(=O)[C@H](C)C[C@H](O)[C@H](CC1CCCCC1)NC(=O)[C@H](Cc1cscn1)NC(=O)[C@@H](CC(=O)N1CCCCC1)Cc1ccc(OC)cc1	120 to 122
CN1C(=O)C(Cc2c[nH]c3c(Cl)cc(S(C)(=O)=O)cc23)NC1=S (stereo not drawn)	242 to 245
Cc1c(Cl)ccc(Br)c1Cl	32 to 33
COC(=O)CC(SC(C)=O)C(CC(C)C)C(=O)NC1CCCCCCCCCCNC1=O (stereo not drawn)	213 to 216
CC(C(=O)O)c1ccc(N2CC(O)C(O)C2)c(Cl)c1 (stereo not drawn)	112 to 114
CS(=O)(=O)c1ccc(Oc2ccc(Cl)c(Cl)c2)nc1	120 to 121

Continued, values first:

melting point [°C]	SMILES
217 to 219	CNC(=O)C(Cc1ccc(OCCc2nc(-c3ccccc3)oc2C)cc1)C(=O)NC
126 to 128	CC1NCC(CO)CC1OC(=O)c1ccncc1 (stereo not drawn)
242 to 245	Cc1c(C)c2ccc(OCCCN3CCC(NC(=O)c4ccc(N)cc4)CC3)cc2oc1=O
261 to 262	O=C1NC(=O)c2ccccc2C1=CNc1ccc(-c2ccccc2)cc1
140 to 142	CN(NC(=O)c1ccccc1C(=O)O)c1nc2ccccc2o1
> 241	COc1ccccc1CN[C@H]1CCCN[C@H]1Cc1ccccc1 (relative stereo)
165 to 167	Cc1cc(Cc2ccc(NS(C)(=O)=O)cc2F)n(C)c1C(=O)c1ccccc1
113 to 115	CC(C)Oc1ccc(C(=O)NCCN2CCC(Oc3ccc(Cl)c(Cl)c3)CC2)cc1
48 to 63	O=C(Oc1ccc(Oc2ccccc2)cc1)N1CCC(OC(=O)N2CCC(OC(=O)N3CCC4(CCCC4)CC3)CC2)CC1
169 to 170	O=c1ccn(CCO)c(C(O)c2ccccc2)c1OCc1ccccc1 (single isomer, unassigned; (+))
160 to 162	CN1CCSC1=NC(=Nc1ccccc1)N1CCCC1
95 to 100	CCCCCCN(CCCCCC)c1c(N[C@@H](Cc2ccc(NC(=O)c3ccccc3)cc2)C(=O)O)c(=O)c1=O
165 to 167	O=S1(=O)CCN2CCCC(c3ccc(Oc4cccc(Cl)c4)cc3)C2=N1 (stereo not drawn)
228 to 229	COc1cc2ncnc(N3CCN(C(=O)NCc4ccc(CO)cc4)CC3)c2cc1OC
166 to 170	OC12CC3CC(C1)C(NC(c1ccccc1)(c1ccccc1)c1ccccc1)C(C3)C2 (stereo not drawn)
86 to 88	COc1ccc(COc2ccc3c(c2)OC(C)(C)C3c2ccc(C(C)C)cc2)cc1 (stereo not drawn)
187 to 190	CCS(=O)(=O)CCC(=O)NNC(=O)N1Cc2ccccc2Oc2ccc(OC)cc21
89.8	Cc1cccc(C(C)(C)C)c1-n1sc(=O)n(Cc2ccccc2)c1=O
118 to 120	O=C(CN1CCC(n2c(=O)[nH]c3ccccc32)CC1)c1ccc(OCc2ccccc2)c(OCc2ccccc2)c1
175 to 176	CCOC(=O)c1cn2c(cc(OC)c3ccccc32)n1
174	Cn1nc(-c2ccc(F)cc2)c(-c2ccncc2)c1Br
108 to 109	CC1NC(=Nc2ccccc2N2CCOCC2)N(CCO)C1C (stereo not drawn)

melting point [°C]	SMILES
> 350	O=C(O)c1ccc(-c2cnc3[nH]c(=O)n(CC4CCCCC4)c3n2)cc1
191 to 192	CC(C)CC(NC(=O)C(Cc1c[nH]cn1)NC(=O)C(Cc1cccc2ccccc12)NC(=O)OCc1ccccc1)C(O)CC(=O)O (stereo not drawn)
79 to 80	CCOC(=O)c1ccc2c3ccccc3n(Cc3ccccc3)c2c1C
66 to 68	CCCCN(CCCC)C(=O)Cc1ccccc1Nc1c(Cl)cccc1Cl
236 to 238	O=C1CCC(N2C(=O)c3cccc(NC(=O)COc4ccccc4)c3C2=O)C(=O)N1 (stereo not drawn)
212 to 214	CCN1C(=O)CCCc2cc(Nc3ncc(Cl)c(Nc4ccc(N5CCOCC5)cc4OC)n3)c(OC)cc21
53 to 63	COc1ccc(CNc2cc(OC)c(Cl)cc2OC)cc1
70 to 72	COC(=O)Oc1cc(NC(=O)OCc2ccccc2)c(F)cc1Cl
90 to 91	O=C(O)CCc1cnoc1-c1ccccc1
106	COc1cccc(C(O)C2c3ccccc3Cc3ccccc32)c1 (stereo not drawn)
173 to 176	Fc1ccc(Oc2ncc3c(-c4ccccc4Cl)n[nH]c3n2)c(F)c1
141 to 145	CCOC(=O)C1CNc2cc(-c3ccccc3)ccc2O1 (stereo not drawn)
209 to 210	CC(=O)Nc1ncc(-c2ccc(=O)n(C(C)C)n2)c(-c2ccccc2)n1
255 to 257	CN1C(C(=O)Nc2nc3c(s2)CCCC3)=C(O)c2ccc3ccccc3c2S1(=O)=O
83 to 85	O=C(CBr)N[C@H](CO)Cc1ccccc1
116 to 118	c1cc(Oc2ccc3c(c2)CCN3)ccn1
137 to 138	CC(C(=O)O)c1ccc(-n2cccn2)cc1 (stereo not drawn)
157 to 158	COc1ccc2c(c1)C(=O)c1c-2c(N2CCNCC2)nc2ccc(F)cc12
128 to 130	CC(C)c1ccc(S(=O)(=O)Nc2ccc(N3CCC(NCC(O)COc4ccc(O)c(S(C)=O)c4)CC3)nc2)cc1 (stereo not drawn)
240	N#Cc1ccc2c(c1)-c1ccccc1OP2(=O)O
175 to 178	Cc1c(-c2ccccc2)c(N2CCC(N(C)C)C2)c2oc(C(C)(C)CO)nc2c1C#N (stereo not drawn)
